Biological target: T1, human TGR5 (Homo sapiens, UniProt Q8TDU6)
T1 construct: expressed in transfected cells; host or cells: HEK293
T1 sequence (Q8TDU6 1-330): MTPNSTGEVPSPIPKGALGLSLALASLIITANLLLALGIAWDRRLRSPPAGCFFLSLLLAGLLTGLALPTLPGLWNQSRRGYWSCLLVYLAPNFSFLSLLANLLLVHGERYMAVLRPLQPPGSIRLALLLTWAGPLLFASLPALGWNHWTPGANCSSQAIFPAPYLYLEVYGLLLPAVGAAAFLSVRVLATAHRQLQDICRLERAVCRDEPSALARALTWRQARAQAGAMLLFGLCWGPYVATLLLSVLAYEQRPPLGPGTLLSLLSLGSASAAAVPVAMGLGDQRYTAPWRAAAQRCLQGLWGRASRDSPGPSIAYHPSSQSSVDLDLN
Experiment: Cell-based TGR5 assay (cAMP generation, HTRF)
Conditions: HEK293 cells stably transfected with human TGR5; cAMP by HTRF; 30 minutes at 37° C.; read-out: pEC50 Human TGR5 (converted)
How it was run: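 Read-out was HTRF detection of cAMP, converted to concentration via a standard curve and fitted (3-parameter logistic) for pEC50 and maximal response. Agonist stimulation used HEK293 cells stably transfected with human TGR5, incubated 30 min at 37° C in IBMX-containing buffer at 0.05 nM to 10 μM compound.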

Row | EC50 | SMILES
1 | < 100 nM | CC(CCCC(=O)N1CCC(NC[C@H](O)[C@@H](O)[C@H](O)[C@H](O)C(=O)O)CC1)c1ccc(Cl)c(CNC2(c3cnccc3-c3ccccc3OC3CC3)CC2)c1 (stereo partly drawn) [Compound I-318, (2S,3S,4R,5S)-6-{[1-(5-{4-chloro-3-[({1-[4-(2-cyclopropoxyphenyl)pyridin-3-yl]cyclopropyl}amino)methyl]phenyl}hexanoyl)piperidin-4-yl]amino}-2,3,4,5-tetrahydroxyhexanoic acid]
2 | < 100 nM | CC(CCCC(=O)N1CCN(C(=O)NC[C@H](O)[C@@H](O)[C@H](O)[C@H](O)CO)CC1)c1ccc(Cl)c(CNC2(c3cnccc3-c3ccccc3OC3CC3)CC2)c1 (stereo partly drawn) [Compound I-319, 4-(5-{4-chloro-3-[({1-[4-(2-cyclopropoxyphenyl)pyridin-3-yl]cyclopropyl}amino)methyl]phenyl}hexanoyl)-N-[(2S,3R,4R,5R)-2,3,4,5,6-pentahydroxyhexyl]piperazine-1-carboxamide]
3 | < 100 nM | CC(CCCC(=O)N1CCC(NC(=O)NC[C@H](O)[C@@H](O)[C@H](O)[C@H](O)CO)CC1)c1ccc(Cl)c(CNC2(c3cnccc3-c3ccccc3OC3CC3)CC2)c1 (stereo partly drawn) [Compound I-320, 1-[1-(5-{4-chloro-3-[({1-[4-(2-cyclopropoxyphenyl)pyridin-3-yl]cyclopropyl}amino)methyl]phenyl}hexanoyl)piperidin-4-yl]-3-[(2S,3R,4R,5R)-2,3,4,5,6-pentahydroxyhexyl]urea]
4 | < 100 nM | CC(CCCC(=O)N1CCN(CC(=O)NC[C@H](O)[C@@H](O)[C@H](O)[C@H](O)CO)CC1)c1ccc(Cl)c(CNC2(c3cnccc3-c3ccccc3OC3CC3)CC2)c1 (stereo partly drawn) [Compound I-321, 2-[4-(5-{4-chloro-3-[({1-[4-(2-cyclopropoxyphenyl)pyridin-3-yl]cyclopropyl}amino)methyl]phenyl}hexanoyl)piperazin-1-yl]-N-[(2S,3R,4R,5R)-2,3,4,5,6-pentahydroxyhexyl]acetamide]
5 | < 100 nM | CC(CCCC(=O)NCCN1CCN(C(=O)NC[C@H](O)[C@@H](O)[C@H](O)[C@H](O)CO)CC1)c1ccc(Cl)c(CNC2(c3cnccc3-c3ccccc3OC3CC3)CC2)c1 (stereo partly drawn) [Compound I-322, 4-[2-(5-{4-chloro-3-[({1-[4-(2-cyclopropoxyphenyl)pyridin-3-yl]cyclopropyl}amino)methyl]phenyl}hexanamido)ethyl]-N-[(2S,3R,4R,5R)-2,3,4,5,6-pentahydroxyhexyl]piperazine-1-carboxamide]
6 | < 100 nM | CC(CCCC(=O)N1CCN(CCNC(=O)NC[C@H](O)[C@@H](O)[C@H](O)[C@H](O)CO)CC1)c1ccc(Cl)c(CNC2(c3cnccc3-c3ccccc3OC3CC3)CC2)c1 (stereo partly drawn) [Compound I-323, 1-{2-[4-(5-{4-chloro-3-[({1-[4-(2-cyclopropoxyphenyl)pyridin-3-yl]cyclopropyl}amino)methyl]phenyl}hexanoyl)piperazin-1-yl]ethyl}-3-[(2S,3R,4R,5R)-2,3,4,5,6-pentahydroxyhexyl]urea]
7 | < 100 nM | CC(CCCC(=O)NCCN1CCN(CC(=O)NC[C@H](O)[C@@H](O)[C@H](O)[C@H](O)CO)CC1)c1ccc(Cl)c(CNC2(c3cnccc3-c3ccccc3OC3CC3)CC2)c1 (stereo partly drawn) [Compound I-324, 5-{4-chloro-3-[({1-[4-(2-cyclopropoxyphenyl)pyridin-3-yl]cyclopropyl}amino)methyl]phenyl}-N-{2-[4-({[(2S,3R,4R,5R)-2,3,4,5,6-pentahydroxyhexyl]carbamoyl}methyl)piperazin-1-yl]ethyl}hexanamide]
8 | < 100 nM | CC(CCCC(=O)N(C)C[C@H](O)[C@@H](O)[C@H](O)[C@H](O)CO)c1ccc(Cl)c(CNC2(c3cnccc3-c3ccccc3OC3CC3)CC2)c1 (stereo partly drawn) [Compound I-327, 5-{4-chloro-3-[({1-[4-(2-cyclopropoxyphenyl)pyridin-3-yl]cyclopropyl}amino)methyl]phenyl}-N-methyl-N-[(2S,3R,4R,5R)-2,3,4,5,6-pentahydroxyhexyl]hexanamide]
9 | < 100 nM | CC(CCCCC(=O)N(C)C[C@H](O)[C@@H](O)[C@H](O)[C@H](O)CO)c1ccc(Cl)c(CNC2(c3cnccc3-c3ccccc3OC3CC3)CC2)c1 (stereo partly drawn) [Compound I-330, 6-{4-chloro-3-[({1-[4-(2-cyclopropoxyphenyl)pyridin-3-yl]cyclopropyl}amino)methyl]phenyl}-N-methyl-N-[(2S,3R,4R,5R)-2,3,4,5,6-pentahydroxyhexyl]heptanamide]
10 | < 100 nM | CC(CCCC(=O)N(CCO)C[C@@H](O)[C@H](O)[C@@H](O)[C@@H](O)CO)c1ccc(Cl)c(CNC2(c3cnccc3-c3ccccc3OC3CC3)CC2)c1 (stereo partly drawn) [Compound I-331, 5-{4-chloro-3-[({1-[4-(2-cyclopropoxyphenyl)pyridin-3-yl]cyclopropyl}amino)methyl]phenyl}-N-(2-hydroxyethyl)-N-[(2R,3S,4S,5S)-2,3,4,5,6-pentahydroxyhexyl]hexanamide]
11 | < 100 nM | CC(CCCC(=O)N(CC(N)=O)C[C@H](O)[C@@H](O)[C@H](O)[C@H](O)CO)c1ccc(Cl)c(CNC2(c3cnccc3-c3ccccc3OC3CC3)CC2)c1 (stereo partly drawn) [Compound I-332, N-(carbamoylmethyl)-5-{4-chloro-3-[({1-[4-(2-cyclopropoxyphenyl)pyridin-3-yl]cyclopropyl}amino)methyl]phenyl}-N-[(2S,3R,4R,5R)-2,3,4,5,6-pentahydroxyhexyl]hexanamide]
12 | < 100 nM | COCCN(C[C@@H](O)[C@H](O)[C@@H](O)[C@@H](O)CO)C(=O)CCCC(C)c1ccc(Cl)c(CNC2(c3cnccc3-c3ccccc3OC3CC3)CC2)c1 (stereo partly drawn) [Compound I-333, 5-{4-chloro-3-[({1-[4-(2-cyclopropoxyphenyl)pyridin-3-yl]cyclopropyl}amino)methyl]phenyl}-N-(2-methoxyethyl)-N-[(2R,3S,4S,5S)-2,3,4,5,6-pentahydroxyhexyl]hexanamide]
13 | < 100 nM | CC(CCCC(=O)N(CCCO)C[C@H](O)[C@@H](O)[C@H](O)[C@H](O)CO)c1ccc(Cl)c(CNC2(c3cnccc3-c3ccccc3OC3CC3)CC2)c1 (stereo partly drawn) [Compound I-334, 5-{4-chloro-3-[({1-[4-(2-cyclopropoxyphenyl)pyridin-3-yl]cyclopropyl}amino)methyl]phenyl}-N-(3-hydroxypropyl)-N-[(2S,3R,4R,5R)-2,3,4,5,6-pentahydroxyhexyl]hexanamide]
14 | 126 to 1000 nM | CC(CCCC(=O)N(CCC(N)=O)C[C@H](O)[C@@H](O)[C@H](O)[C@H](O)CO)c1ccc(Cl)c(CNC2(c3cnccc3-c3ccccc3OC3CC3)CC2)c1 (stereo partly drawn) [Compound I-335, N-(2-carbamoylethyl)-5-{4-chloro-3-[({1-[4-(2-cyclopropoxyphenyl)pyridin-3-yl]cyclopropyl}amino)methyl]phenyl}-N-[(2S,3R,4R,5R)-2,3,4,5,6-pentahydroxyhexyl]hexanamide]
15 | < 100 nM | CNC(=O)CN(C[C@H](O)[C@@H](O)[C@H](O)[C@H](O)CO)C(=O)CCCC(C)c1ccc(Cl)c(CNC2(c3cnccc3-c3ccccc3OC3CC3)CC2)c1 (stereo partly drawn) [Compound I-336, 5-{4-chloro-3-[({1-[4-(2-cyclopropoxyphenyl)pyridin-3-yl]cyclopropyl}amino)methyl]phenyl}-N-[(methylcarbamoyl)methyl]-N-[(2S,3R,4R,5R)-2,3,4,5,6-pentahydroxyhexyl]hexanamide]
16 | 126 to 1000 nM | CC(CCCC(=O)N(CCN(C)C)C[C@H](O)[C@@H](O)[C@H](O)[C@H](O)CO)c1ccc(Cl)c(CNC2(c3cnccc3-c3ccccc3OC3CC3)CC2)c1 (stereo partly drawn) [Compound I-337, 5-{4-chloro-3-[({1-[4-(2-cyclopropoxyphenyl)pyridin-3-yl]cyclopropyl}amino)methyl]phenyl}-N-[^2-(dimethylamino)ethyl]-N-[(2S,3R,4R,5R)-2,3,4,5,6-pentahydroxyhexyl]hexanamide]
17 | < 100 nM | COCCCN(C[C@H](O)[C@@H](O)[C@H](O)[C@H](O)CO)C(=O)CCCC(C)c1ccc(Cl)c(CNC2(c3cnccc3-c3ccccc3OC3CC3)CC2)c1 (stereo partly drawn) [Compound I-338, 5-{4-chloro-3-[({11-[4-(2-cyclopropoxyphenyl)pyridin-3-yl]cyclopropyl}amino)methyl]phenyl}-N-(3-methoxypropyl)-N-[(2S,3R,4R,5R)-2,3,4,5,6-pentahydroxyhexyl]hexanamide]
18 | 126 to 1000 nM | CC(CCCC(=O)N(CC(=O)N(C)C)C[C@H](O)[C@@H](O)[C@H](O)[C@H](O)CO)c1ccc(Cl)c(CNC2(c3cnccc3-c3ccccc3OC3CC3)CC2)c1 (stereo partly drawn) [Compound I-340, 5-{4-chloro-3-[({1-[4-(2-cyclopropoxyphenyl)pyridin-3-yl]cyclopropyl}amino)methyl]phenyl}-N-[(dimethylcarbamoyl)methyl]-N-[(2S,3R,4R,5R)-2,3,4,5,6-pentahydroxyhexyl]hexanamide]
19 | < 100 nM | CC(CCCC(=O)N(C[C@@H](O)[C@H](O)[C@@H](O)[C@@H](O)CO)CC(C)(C)CO)c1ccc(Cl)c(CNC2(c3cnccc3-c3ccccc3OC3CC3)CC2)c1 (stereo partly drawn) [Compound I-341, 5-{4-chloro-3-[({1-[4-(2-cyclopropoxyphenyl)pyridin-3-yl]cyclopropyl}amino)methyl]phenyl}-N-(3-hydroxy-2,2-dimethylpropyl)-N-[(2R,3S,4S,5S)-2,3,4,5,6-pentahydroxyhexyl]hexanamide]
20 | < 100 nM | CC(CCCC(=O)N(CCOCCO)C[C@H](O)[C@@H](O)[C@H](O)[C@H](O)CO)c1ccc(Cl)c(CNC2(c3cnccc3-c3ccccc3OC3CC3)CC2)c1 (stereo partly drawn) [Compound I-342, 5-{4-chloro-3-[({1-[4-(2-cyclopropoxyphenyl)pyridin-3-yl]cyclopropyl]amino)methyl]phenyl}-N-[2-(2-hydroxyethoxy)ethyl]-N-[(2S,3R,4R,5R)-2,3,4,5,6-pentahydroxyhexyl]hexanamide]

From patent US12084472B2 (Ardelyx, Inc., priority 2015, dated 2024)
